# Laboratory results published in US10882838B2, “Cannabinergic compounds and uses thereof” (Northeastern University, priority 2012, dated 2021).
# Experiments:
# [1] = background statement; cited from earlier work
# [2] = background statement; cited from earlier work; remark: listed apart in the source
# CB1 receptor = CB1 receptor (Rattus norvegicus (Rat), UniProt P20272); assay: rCB1 competition-equilibrium binding with [3H]CP-55,940, rat brain membranes; conditions: rat brain membranes, [3H]CP-55,940; read-out: rCB1 Ki
# Method: Frozen rat brains (CB1 source) are obtained from Pel-Freeze Biologicals (Rogers, Ak.) and stored at −80° C. until use. Membranes are prepared according to the method described by Dodd et al. and used in our laboratory as reported.
# (§1) All the cannabinoids discussed in this invention are tested for their ability to bind to CB1 and CB2 receptors using membranes from rat brain or HEK293 cells expressing either mCB2 or hCB2, respectively via competition-equilibrium binding using [^3H]CP-55,940. Results are analyzed using nonlinear regression to determine ligand IC50 (Prism by GraphPad Software, Inc.), and Ki values are calculated from the IC50. IC50 and Ki values are determined from at least three independent experiments.
# mCB2 receptor = mCB2 receptor (Mus musculus (Mouse), UniProt P47936); assay: mCB2 competition-equilibrium binding with [3H]CP-55,940, membranes of HEK293 cells expressing mCB2; conditions: HEK293 cells expressing mCB2, [3H]CP-55,940; read-out: mCB2 Ki
# Method: (§2) HEK293 cells expressing hCB1 or hCB2 or mCB2 receptor are used for membrane preparations according to Abadji et al. The resulting pellet is resuspended in 10 mM Tris-chloride, pH 7.4, with 5 mM MgCl2 and 2 mM EDTA (TME), rapidly frozen in liquid nitrogen and stored at −80° C. for no longer than two months. Protein content is assayed by using the Bio-Rad protein assay according to the manufacturer's protocol.
# as §1
# hCB2 receptor = hCB2 receptor (Homo sapiens (Human), UniProt P34972); assay: hCB2 competition-equilibrium binding with [3H]CP-55,940, membranes of HEK293 cells expressing hCB2; conditions: HEK293 cells expressing hCB2, [3H]CP-55,940; read-out: hCB2 Ki
# Method: as §2, §1
# [3] = Stability in plasma (half-life); assay type: in vitro ADME, rat or monkey; conditions: method: 200 μM in plasma, 37°; species of plasma not given
# Method: The designed compounds carry a side chain that is susceptible to plasma esterase activity, inviting their rapid deactivation. Thus, it is important to characterize the rate of compound metabolism in isolated rat or monkey plasma. As a preliminary predictor of oral stability, this assay will also be done in buffers at pH 2 (to emulate the stomach) and pH 7.4 (physiological pH). Compounds (10 mM in DMSO) are diluted in plasma, acetonitrile or buffer to a concentration of 200 μM and incubated in a 37° shaking water bath for 2 hours. Samples are taken periodically, diluted 1:4 with acetonitrile and centrifuged to precipitate protein. The resulting supernatant is analyzed by HPLC to predict expected in vivo plasma half-lives.
# [4] = background statement, up to; cited from earlier work
Structure (SMILES),clog P [1],protein binding [2] [%],Ki (CB1 receptor) [nM],Ki (mCB2 receptor) [nM],Ki (hCB2 receptor) [nM],half-life at 200 μM [3] [min],t 1/2 [3] [min],slow and erratic absorption [4] [h]
CCCCCCC(C)(C)c1cc(O)c2c(c1)OC(C)(C)C1CCC(=O)CC21 (centres unmarked) [Nabilone],> 7,≥ 97,,,,,,
"CC(C)(C(=O)OCCCCn1ccnc1)c1cc(O)c2c(c1)OC(C)(C)[C@@H]1CC=C(CO)C[C@@H]21 [Compound 2.3, 4-(1H-imidazol-1-yl)-butyl-2-((6aR,10aR)-6a,7,10,10a-tetrahydro-1-hydroxy-9-(hydroxymethyl)-6,6-dimethyl-6H-benzo[c]chromen-3-yl)-2-methylpropanoate]",,,25.3,11.6,8.7,120,,
"CC1=CC[C@H]2[C@@H](C1)c1c(O)cc(C(C)(C)C(=O)OCCCCBr)cc1OC2(C)C [Compound 1.2, 4-bromobutyl-2-((6aS,10aR)-6a,7,10,10a-tetrahydro-1-hydroxy-6,6,9-trimethyl-6H-benzochromen-3-yl)-2-methylpropanoate]",,,1.2,0.6,0.8,,15,
CCCCCc1cc(O)c2c(c1)OC(C)(C)[C@@H]1CCC(C)=C[C@@H]21 [Dronabinol],> 7,≥ 97,,,,,,2 to 6
"CCCCOC(=O)[C@H](C)c1cc(O)c2c(c1)OC(C)(C)[C@@H]1CC=C(C)C[C@@H]21 [Compound 1.14, (R)-butyl 2-((6aR,10aR)-1-hydroxy-6,6,9-trimethyl-6a,7,10,10a-tetrahydro-6H-benzo[c]chromen-3-yl)propanoate]",,,0.9,1.4,1.4,7,,
"CC1=CC[C@@H]2[C@@H](C1)c1c(O)cc(C(C)(C)C(=O)OCCCCN3CCOCC3)cc1OC2(C)C [Compound 1.24, 4-morpholinobutyl 2-((6aR,10aR)-1-hydroxy-6,6,9-trimethyl-6a,7,10,10a-tetrahydro-6H-benzo[c]chromen-3-yl)-2-methylpropanoate]",,,33.8,71.8,39.9,68,,
"CCCCOC(=O)[C@@H](C)c1cc(O)c2c(c1)OC(C)(C)[C@@H]1CC=C(C)C[C@@H]21 [Compound 1.16, (S)-butyl 2-((6aR,10aR)-1-hydroxy-6,6,9-trimethyl-6a,7,10,10a-tetrahydro-6H-benzo[c]chromen-3-yl)propanoate]",,,2.4,1.3,1.5,6,,
"CCCCOC(=O)Cc1cc(O)c2c(c1)OC(C)(C)[C@@H]1CC=C(C)C[C@@H]21 [Compound 1.29, Butyl-2-((6aR,10aR)-6a,7,10,10a-tetrahydro-1-hydroxy-6,6,9-trimethyl-6H-benzo[c]chromen-3-yl)acetate]",,,40.3,27,8.2,5,,
"CCCCOC(=O)C(C)(C)c1cc(O)c2c(c1)OC(C)(C)[C@@H]1CC[C@@H](O)C[C@@H]21 [Compound 3.6, Butyl-2-((6aR,9R,10aR)-6a,7,8,9,10,10a-hexahydro-1,9-dihydroxy-6,6-dimethyl-6H-benzo[c]chromen-3-yl)-2-methylpropanoate]",,,0.1,0.2,0.2,3,,
"CCCCOC(=O)C1(c2cc(O)c3c(c2)OC(C)(C)[C@@H]2CC=C(C)C[C@@H]32)CCC1 [Compound 1.20, butyl 1-((6aR,10aR)-1-hydroxy-6,6,9-trimethyl-6a,7,10,10a-tetrahydro-6H-benzo[c]chromen-3-yl)cyclobutane carboxylate]",,,0.7,0.7,0.4,40,,
"CC1=CC[C@@H]2[C@@H](C1)c1c(O)cc(CC(=O)OCCCCC#N)cc1OC2(C)C [Compound 1.28, 4-cyanobutyl-2-((6aR,10aR)-6a,7,10,10a-tetrahydro-1-hydroxy-6,6,9-trimethyl-6H-benzo[c]chromen-3-yl)acetate]",,,14.3,2.1,1.2,4.8,,
